Test results published in ChEMBL document CHEMBL2396614, “Affinity-based screening of MDM2/MDMX-p53 interaction inhibitors by chemical array: identification of novel peptidic inhibitors” (Bioorg Med Chem Lett, 2013).
Residues, ends and D or L forms follow the SMILES beside them. *: point of attachment. Mts = Cc1cc(C)c(S(=O)(=O)*)c(C)c1; Npys = O=[N+]([O-])c1cccnc1S*; X1 = COc1ccc(COC(=O)*)cc1; Boc = CC(C)(C)OC(=O)*; OBn = c1ccc(CO*)cc1; X2 = C1CCCC(O*)CC1; NHNH2 = NN*

Legend:
Protein Mdm4 = biological target: T1, Protein Mdm4 (Homo sapiens, UniProt O15151); test: Inhibition of MDMX (unknown origin) binding to FAM-LTFEHYWAQLTS-NH2 after 30 mins by fluorescence polarization assay
T1 sequence (O15151 whole entry): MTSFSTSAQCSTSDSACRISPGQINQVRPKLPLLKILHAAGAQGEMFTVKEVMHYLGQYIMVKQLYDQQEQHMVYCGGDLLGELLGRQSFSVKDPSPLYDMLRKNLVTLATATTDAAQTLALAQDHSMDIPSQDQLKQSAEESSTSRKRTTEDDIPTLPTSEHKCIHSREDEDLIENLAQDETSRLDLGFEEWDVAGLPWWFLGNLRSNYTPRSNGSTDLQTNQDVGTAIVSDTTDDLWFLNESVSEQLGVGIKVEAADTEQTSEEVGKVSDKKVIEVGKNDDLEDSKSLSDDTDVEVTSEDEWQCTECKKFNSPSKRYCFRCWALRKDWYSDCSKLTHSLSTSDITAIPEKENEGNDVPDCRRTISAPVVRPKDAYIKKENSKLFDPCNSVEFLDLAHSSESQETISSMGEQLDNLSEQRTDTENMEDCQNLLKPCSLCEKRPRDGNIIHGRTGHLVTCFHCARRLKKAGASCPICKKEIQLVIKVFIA

A549 = test: Growth inhibition of human A549 cells after 72 hrs by MTS assay; format: functional, cell-based; conditions: A549, 72 h
[1] = biological target: E3 ubiquitin-protein ligase Mdm2 (Homo sapiens, UniProt Q00987); test: Inhibition of MDM2 (unknown origin) binding to FAM-LTFEHYWAQLTS-NH2 after 30 mins by fluorescence polarization assay
[2] = Solubility of the compound in DMEM medium at > 30 uM; format: physicochemical

E3 ubiquitin-protein ligase Mdm2, sequence (Q00987 whole entry): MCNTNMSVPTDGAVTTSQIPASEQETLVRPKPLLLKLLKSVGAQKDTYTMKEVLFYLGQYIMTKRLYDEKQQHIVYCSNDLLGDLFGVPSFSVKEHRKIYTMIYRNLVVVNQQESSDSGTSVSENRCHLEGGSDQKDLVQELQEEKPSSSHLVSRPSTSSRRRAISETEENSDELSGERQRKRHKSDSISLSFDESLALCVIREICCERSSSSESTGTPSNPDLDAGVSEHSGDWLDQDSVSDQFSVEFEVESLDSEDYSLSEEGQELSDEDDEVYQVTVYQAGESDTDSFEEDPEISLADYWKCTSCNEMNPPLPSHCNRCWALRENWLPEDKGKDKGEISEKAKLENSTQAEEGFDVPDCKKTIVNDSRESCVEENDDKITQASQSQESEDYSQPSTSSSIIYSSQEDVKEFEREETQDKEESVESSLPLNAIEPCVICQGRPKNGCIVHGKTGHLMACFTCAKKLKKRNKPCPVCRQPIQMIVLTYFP

Row | Compound | IC50 (Protein Mdm4) [µM] | EC50 (A549) [µM] | IC50 [1] [µM] | solubility [2]
1 | CC[C@H](C)[C@H](NC(=O)[C@H](Cc1ccccc1)NC(=O)[C@H](CSSc1ncccc1[N+](=O)[O-])NC(=O)OC(C)(C)C)C(=O)N[C@@H](CCCNC(=N)NS(=O)(=O)c1c(C)cc(C)cc1C)C(=O)OC (Boc-C(Npys)FIR(Mts)-OMe) | 42.1 | 13.7 | 22.2 | 
2 | COc1ccc(COC(=O)N[C@@H](C)C(=O)N[C@@H](CCC(=O)OCc2ccccc2)C(=O)N[C@@H](CC(C)C)C(=O)N[C@H](C(=O)N[C@@H](CC(=O)OC2CCCCCC2)C(=O)N[C@@H](C)C(=O)NN)C(C)C)cc1 (X1-AE(OBn)LVD(X2)A-NHNH2) | 52.5 | > 30 | 21.3 | Insoluble
3 | COc1ccc(COC(=O)N[C@H](C(=O)N[C@@H](CCC(C)=O)C(=O)N[C@@H](Cc2cn(S(=O)(=O)c3c(C)cc(C)cc3C)c3ccccc23)C(=O)N[C@@H](CC(C)C)C(=O)NN)C(C)C)cc1 | 32.4 | > 30 | 8.51 | Insoluble
